Assay results published in patent US20250074911A1, “MACROCYCLIC BTK INHIBITORS” (Crossfire Oncology Holding B.V., priority 2021, published 2025).
Several values for one entry are separate records, joined by “and”; a condition that tells them apart may be missing. Identical values can stand only once.

Columns and labels:
REC-1 T474I cell lines = experiment: Cell proliferation assay REC-1 BTK T474I knock-in cells (ATPlite, 72 hours); type: cell-based; conditions: Homo sapiens, Rec1; 72 hours; read-out: IC50 REC-1 T474I
Method in brief: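 REC-1 cells carrying CRISPR knock-in mutant BTK, single-cell cloned and sequence-confirmed, were exposed to compound for 72 h and read by ATPlite luminescence. Percentage growth was calculated against the signal at the start of incubation and against untreated 0.3% DMSO wells as maximum growth.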

[1] = system: wt-TMD8 diffuse large B-cell lymphoma cells; experiment: Cell proliferation assay wt-TMD8 (ATPlite, 120 hours); type: cell-based; conditions: B-cell; wt-TMD8 cells, 120 hours, ATPlite; read-out: IC50 wt-TMD8
Method in brief: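 wt-TMD8 DLBCL cells, 1600 per well in RPMI-1640 with 10% FBS, rested ≥5 h then exposed to compound for 120 h at 37° C, 5% CO2. Viability read by ATPlite luminescence; percentage growth calculated relative to start-of-incubation signal and untreated 0.3% DMSO maximum growth.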

[2] = system: wt-REC-1 mantle cell lymphoma cells; experiment: Cell proliferation assay wt-REC-1 (ATPlite, 72 hours); type: cell-based; conditions: 72 h; read-out: IC50 wt-REC-1
Method in brief: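 Luminescent viability read over 72 h, start-of-incubation signal recorded separately to separate growth from cell death. Percentage growth referenced to compound-free 0.3% DMSO wells; IC50 from 4-parameter logistic fit.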

BTK T474I = BTK T474I (Homo sapiens (Human), UniProt Q06187, T474I); experiment: Binding kinetics measurements (Surface Plasmon Resonance) on BTK T474I; conditions: for Tau (h) BTK T474I (Act): target residence time, SPR; for Kd: binding affinity by Surface Plasmon Resonance (SPR)
Chain of BTK T474I (Q06187 whole entry T474I): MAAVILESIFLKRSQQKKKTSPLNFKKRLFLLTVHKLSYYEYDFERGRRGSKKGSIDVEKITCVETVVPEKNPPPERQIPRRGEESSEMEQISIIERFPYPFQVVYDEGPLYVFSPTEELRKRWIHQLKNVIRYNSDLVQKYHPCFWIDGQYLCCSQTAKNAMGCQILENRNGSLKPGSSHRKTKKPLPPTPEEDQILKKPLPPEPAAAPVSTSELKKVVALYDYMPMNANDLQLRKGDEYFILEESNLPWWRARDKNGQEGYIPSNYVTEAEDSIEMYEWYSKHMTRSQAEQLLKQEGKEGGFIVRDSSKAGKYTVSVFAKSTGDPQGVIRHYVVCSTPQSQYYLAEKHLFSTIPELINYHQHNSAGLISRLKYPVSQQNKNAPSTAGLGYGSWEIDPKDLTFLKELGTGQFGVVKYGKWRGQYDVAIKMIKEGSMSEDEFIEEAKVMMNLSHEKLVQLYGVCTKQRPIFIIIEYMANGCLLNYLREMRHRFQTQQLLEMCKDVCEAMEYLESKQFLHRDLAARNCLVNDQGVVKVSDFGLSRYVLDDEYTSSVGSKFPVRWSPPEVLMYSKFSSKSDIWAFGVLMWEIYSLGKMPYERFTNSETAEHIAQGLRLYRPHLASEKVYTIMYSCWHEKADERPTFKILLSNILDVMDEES
Method in brief: (§1)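 SPR, single cycle kinetics: 5 injections, 3.16-316 nM, 30 μl/min (avoids mass transport limitation), 22° C, 1% DMSO buffer. Protein immobilized at 4° C on streptavidin chip, biocytin block. Blank run first; reference channel and buffer curves subtracted.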

wt-BTK = wt-BTK (Homo sapiens (Human), UniProt Q06187); experiment: Binding kinetics measurements (Surface Plasmon Resonance) on wt-BTK; conditions: for Tau (h) wt-BTK (Act): target residence time, SPR; for Kd: binding affinity by Surface Plasmon Resonance (SPR)
Chain of wt-BTK (Q06187 whole entry): as the sequence (Q06187 whole entry T474I) above, with I474T counted along it
Method in brief: as §1

BTK T474S = BTK T474S (Homo sapiens (Human), UniProt Q06187, T474S); experiment: Binding kinetics measurements (Surface Plasmon Resonance) on BTK T474S; conditions: for residence time: SPR binding kinetics, BTK T474S, read-out: Tau (h) BTK T474S (Act), target residence time (converted); for Kd: binding affinity by Surface Plasmon Resonance (SPR)
Chain of BTK T474S (Q06187 whole entry T474S): as the sequence (Q06187 whole entry T474I) above, with I474S counted along it
Method in brief: as §1

[3] = target: full-length wt-BTK enzyme (Homo sapiens (Human), UniProt Q06187); experiment: Biochemical kinase assay wt-BTK (IMAP)
Chain of full-length wt-BTK enzyme (Q06187 whole entry): as the sequence (Q06187 whole entry T474I) above, with I474T counted along it
Method in brief: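 IMAP fluorescence polarization assay: 1.2 nM enzyme pre-incubated 1 h with compound at room temperature, then 50 nM fluorescein-labeled MBP-derived peptide and 4 μM ATP added. Reaction ran 2 h at room temperature in the dark before quenching with IMAP binding solution.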

BTK C481S = BTK C481S (Homo sapiens (Human), UniProt Q06187, C481S); experiment: Binding kinetics measurements (Surface Plasmon Resonance) on BTK C481S; conditions: for Tau (h) BTK C418S (Act): target residence time for BTK C481S, SPR; for Kd: binding affinity by Surface Plasmon Resonance (SPR)
Chain of BTK C481S (Q06187 whole entry C481S): as the sequence (Q06187 whole entry T474I) above, with I474T, C481S counted along it
Method in brief: as §1

BTK T316A = BTK T316A (Homo sapiens (Human), UniProt Q06187, T316A); experiment: Binding kinetics measurements (Surface Plasmon Resonance) on BTK T316A; conditions: for Tau (h) BTK T316A (Act): target residence time, SPR; for Kd: binding affinity by Surface Plasmon Resonance (SPR)
Chain of BTK T316A (Q06187 whole entry T316A): as the sequence (Q06187 whole entry T474I) above, with T316A, I474T counted along it
Method in brief: as §1

[4] = target: full-length BTK C481S enzyme (Homo sapiens (Human), UniProt Q06187, C481S); experiment: Biochemical kinase assay BTK C481S (IMAP)
Chain of full-length BTK C481S enzyme (Q06187 whole entry C481S): as the sequence (Q06187 whole entry T474I) above, with I474T, C481S counted along it
Method in brief: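 Full-length BTK C481S (1.2 nM) was pre-incubated with compound for 1 h at room temperature in the dark, then reacted with fluorescein-labelled MBP-derived peptide (50 nM) and ATP (7 μM) for 2 h. Reactions were quenched with IMAP binding solution, and IC50 values were derived from fluorescence polarization.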

IC50 [1] [nM] | IC50 [2] [nM] | Tau (h) BTK T474I (Act) (BTK T474I) [h] | Tau (h) wt-BTK (Act) (wt-BTK) [h] | residence time (BTK T474S) [h] | IC50 [3] [nM] | Tau (h) BTK C418S (Act) (BTK C481S) [h] | Tau (h) BTK T316A (Act) (BTK T316A) [h] | IC50 [4] [nM] | Kd (BTK T474I) | Kd (wt-BTK) [nM] | Kd (BTK T474S) [nM] | Kd (BTK C481S) [nM] | Kd (BTK T316A) [nM] | Structure (SMILES) | IC50 (REC-1 T474I cell lines) [nM]
< 100 | < 100 | 4.37 | >24 | 6.74 | < 5 | 3.51 | 4.67 | < 5 | – | – | – | – | – | N#Cc1ccnc(NC(=O)c2ccc(-c3nn4c5c(cnc(N)c35)/C=C/CCCCCC(=O)N[C@@H]3CCC[C@@H]4C3)cc2)c1 [Example 163] | < 100
< 100 | < 100 | – | 6.80 | 4.41 | < 5 | 2.91 | 2.28 | < 5 | < 2 nM | < 5 | < 3 | < 5 | < 5 | Nc1ncc2c3c1c(-c1ccc(C(=O)Nc4cc(C(F)(F)F)ccn4)cc1)nn3[C@@H]1CCC[C@H](C1)NC(=O)COCC/C=C/2 [Example 6] | 100 to 500
< 100 | < 100 | 2.54 | 2.05 | 3.15 | < 5 | 2.76 | 1.58 | < 5 | – | – | – | – | – | Nc1ncc2c3c1c(-c1ccc(C(=O)Nc4cc(C(F)(F)F)ccn4)cc1)nn3[C@@H]1CC[C@H](C1)NC(=O)CCOC/C=C/2 [Example 170] | < 100
< 100 | < 100 | 2.05 | 3.41 | 2.02 | < 5 | 6.32 | 7.64 | < 5 | – | – | – | – | – | C[C@@H]1CC(=O)N[C@@H]2CCC[C@H](C2)n2nc(-c3ccc(C(=O)Nc4cc(C#N)ccn4)cc3)c3c(N)ncc(c32)/C=C/CCO1 [Example 162] | < 100
< 100 | < 100 | 2.63 | 9.97 | 3.8 | < 5 | 2.21 | 2.91 | < 5 | < 2 nM | < 5 | < 3 | < 5 | < 5 | N#Cc1ccnc(NC(=O)c2ccc(-c3nn4c5c(cnc(N)c35)/C=C/CCOCCC(=O)N[C@@H]3CCC[C@@H]4C3)cc2)c1 [Example 155] | < 100

Continued, compound first:

Structure (SMILES) | IC50 [1] [nM] | IC50 [2] [nM] | Tau (h) BTK T474I (Act) (BTK T474I) [h] | Tau (h) wt-BTK (Act) (wt-BTK) [h] | residence time (BTK T474S) [h] | IC50 [3] [nM] | Tau (h) BTK C418S (Act) (BTK C481S) [h] | Tau (h) BTK T316A (Act) (BTK T316A) [h] | IC50 [4] [nM] | Kd (BTK T474I) | Kd (wt-BTK) [nM] | Kd (BTK T474S) [nM] | Kd (BTK C481S) [nM] | Kd (BTK T316A) [nM] | IC50 (REC-1 T474I cell lines) [nM]
Nc1ncc2c3c1c(-c1ccc(C(=O)Nc4cc(C(F)(F)F)ccn4)cc1)nn3[C@@H]1CCC[C@H](C1)NC(=O)C1CCN1CC/C=C/2 (stereo partly drawn) [Example 34] | < 100 | < 100 | 1.70 | 6.06 | 8.1 | < 5 | 9.06 | 5.41 | < 5 | < 2 nM | < 5 | < 3 | < 5 | < 5 | < 100
C[C@@H]1CCn2nc(-c3ccc(C(=O)Nc4cc(C(F)(F)F)ccn4)cc3)c3c(N)ncc(c32)/C=C/CO[C@H](C)C(=O)N1 [Example 57] | < 100 | < 100 | – | 2.14 | 1.96 | < 5 | 7.92 | 2.06 | < 5 | < 2 nM | < 5 | < 3 | < 5 | < 5 | 500 to 10000
CN1C/C=C/c2cnc(N)c3c(-c4ccc(C(=O)Nc5cc(C(F)(F)F)ccn5)cc4)nn(c23)[C@@H]2CCC[C@H](C2)NC(=O)CCCC1 [Example 20] | < 100 | 100 to 1000 | – | 2.79 | 2.75 | < 5 | 1.05 | 2.01 | < 5 | < 2 nM | < 5 | < 3 | < 5 | < 5 | 500 to 10000
C[C@@H]1CC(=O)N[C@@H]2CCC[C@H](C2)n2nc(-c3ccc(C(=O)Nc4cc(C(F)(F)F)ccn4)cc3)c3c(N)ncc(c32)/C=C/CCO1 [Example 157] | < 100 | < 100 | 3.34 | 5.15 | 1.47 | < 5 | 2.42 | 5.27 | < 5 | < 2 nM | < 5 | < 3 | < 5 | < 5 | < 100
COc1ccc(F)cc1C(=O)NCc1ccc(-c2nn3c4c(cnc(N)c24)/C=C/CO[C@H](C)C(=O)N[C@@H]2CCC[C@@H]3C2)cc1 [Example 53] | < 100 | < 100 | – | 0.89 | 1.26 | < 5 | 1.57 | – | < 5 | 10 to 50 nM and < 5 nM | < 5 | < 3 | < 5 | < 5 | 100 to 500
Nc1ncc2c3c1c(-c1ccc(C(=O)Nc4ccccn4)cc1)nn3[C@@H]1CCC[C@H](C1)NC(=O)CCCC/C=C\C2 [Example 100b] | < 100 | 100 to 1000 | – | – | – | < 5 | 0.98 | – | < 5 | 10 to 50 nM and < 5 nM | < 5 | < 5 | < 5 | < 5 | 500 to 10000
